The source of these data is publication PMC3602154 (PLoS ONE, 2013).

Where two headings read alike, the source gives them in different places.

One assay addresses 5-HT1B (Homo sapiens, UniProt P28222). Description: PDSP radioligand binding, serotonin receptor 5-HT1B. From the text: (§1) [17] and http://pdsp.med.unc.edu/UNC-CH%20Protocol%20Book.pdf.
The target in the next assay is A4B2 (Rattus norvegicus, UniProt P09483+P12390). As to the kind of experiment: PDSP radioligand binding, nicotinic receptor α4 ß2.
Text: as §1

For the next assay, the target named is A4B4 (Rattus norvegicus, UniProt P09483+P12392). As to the kind of experiment: PDSP radioligand binding, nicotinic receptor α4 ß4.
Text: as §1

For a further assay, the target named is T1, Alpha1D (Homo sapiens, UniProt P25100).
T1 sequence (P25100 1-572): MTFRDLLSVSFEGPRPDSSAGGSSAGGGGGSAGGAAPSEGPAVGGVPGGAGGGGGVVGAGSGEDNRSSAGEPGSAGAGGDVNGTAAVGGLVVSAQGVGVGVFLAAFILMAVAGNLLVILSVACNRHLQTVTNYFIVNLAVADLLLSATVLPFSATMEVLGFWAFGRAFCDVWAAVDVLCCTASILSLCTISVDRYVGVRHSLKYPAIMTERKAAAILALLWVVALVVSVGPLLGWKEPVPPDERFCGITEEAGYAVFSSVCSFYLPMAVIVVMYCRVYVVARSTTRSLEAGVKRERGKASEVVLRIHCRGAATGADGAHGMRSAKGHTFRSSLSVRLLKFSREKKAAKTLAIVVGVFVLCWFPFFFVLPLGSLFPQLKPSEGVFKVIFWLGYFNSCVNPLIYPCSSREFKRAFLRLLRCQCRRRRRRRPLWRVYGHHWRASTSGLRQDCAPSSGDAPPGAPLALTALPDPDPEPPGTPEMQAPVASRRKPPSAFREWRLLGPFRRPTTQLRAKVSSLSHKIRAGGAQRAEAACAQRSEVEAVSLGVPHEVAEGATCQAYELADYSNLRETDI
As to the kind of experiment: PDSP radioligand binding, adrenoceptor α1D.
Text: as §1

The next assay has as its target T2, Alpha2A (Homo sapiens, UniProt P08913).
T2 sequence (P08913 1-465): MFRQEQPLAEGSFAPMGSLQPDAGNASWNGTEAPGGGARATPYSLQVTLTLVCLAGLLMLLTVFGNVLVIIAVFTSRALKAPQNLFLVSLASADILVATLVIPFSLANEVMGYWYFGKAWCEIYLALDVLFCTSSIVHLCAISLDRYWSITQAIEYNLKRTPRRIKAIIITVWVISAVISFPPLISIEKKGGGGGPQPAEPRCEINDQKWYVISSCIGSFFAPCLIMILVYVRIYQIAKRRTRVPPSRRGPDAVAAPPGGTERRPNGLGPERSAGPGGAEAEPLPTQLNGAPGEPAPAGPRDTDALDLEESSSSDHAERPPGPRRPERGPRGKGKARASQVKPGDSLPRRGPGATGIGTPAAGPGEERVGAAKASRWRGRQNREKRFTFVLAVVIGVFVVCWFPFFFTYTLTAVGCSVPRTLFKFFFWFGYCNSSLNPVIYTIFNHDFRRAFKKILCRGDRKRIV
As to the kind of experiment: PDSP radioligand binding, adrenoceptor α2A.
Text: as §1

In the next assay the target is CB2 (Homo sapiens, UniProt P34972). As to the kind of experiment: PDSP radioligand binding, cannabinoid CB-2.
Text: as §1

The next assay concerns the target T3, D4 (Homo sapiens, UniProt P21917).
T3 sequence (P21917 1-419): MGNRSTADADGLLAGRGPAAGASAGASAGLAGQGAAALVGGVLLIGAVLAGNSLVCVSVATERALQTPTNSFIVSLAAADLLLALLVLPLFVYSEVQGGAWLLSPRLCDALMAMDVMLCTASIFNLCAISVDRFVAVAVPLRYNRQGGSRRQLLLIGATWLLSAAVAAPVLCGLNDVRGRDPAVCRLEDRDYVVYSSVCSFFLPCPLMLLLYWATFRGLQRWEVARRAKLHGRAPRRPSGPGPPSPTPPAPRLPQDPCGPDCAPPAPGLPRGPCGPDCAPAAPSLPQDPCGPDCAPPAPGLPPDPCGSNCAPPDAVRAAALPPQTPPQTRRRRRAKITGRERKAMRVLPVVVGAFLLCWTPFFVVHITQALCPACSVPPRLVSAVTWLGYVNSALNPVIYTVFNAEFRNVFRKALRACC
As to the kind of experiment: PDSP radioligand binding, dopamine receptor D4.
Text: as §1

A further assay concerns the target DOR (Homo sapiens, UniProt P41143). As to the kind of experiment: PDSP radioligand binding, opioid receptor DOR.
Text: as §1

For the next assay, the target named is GABAA. As to the kind of experiment: PDSP radioligand binding, GABA-A. The settings on record: Table S1; unit inferred.
Text: as §1

The target of another assay is T4, M1 (Homo sapiens, UniProt P11229).
T4 sequence (P11229 1-460): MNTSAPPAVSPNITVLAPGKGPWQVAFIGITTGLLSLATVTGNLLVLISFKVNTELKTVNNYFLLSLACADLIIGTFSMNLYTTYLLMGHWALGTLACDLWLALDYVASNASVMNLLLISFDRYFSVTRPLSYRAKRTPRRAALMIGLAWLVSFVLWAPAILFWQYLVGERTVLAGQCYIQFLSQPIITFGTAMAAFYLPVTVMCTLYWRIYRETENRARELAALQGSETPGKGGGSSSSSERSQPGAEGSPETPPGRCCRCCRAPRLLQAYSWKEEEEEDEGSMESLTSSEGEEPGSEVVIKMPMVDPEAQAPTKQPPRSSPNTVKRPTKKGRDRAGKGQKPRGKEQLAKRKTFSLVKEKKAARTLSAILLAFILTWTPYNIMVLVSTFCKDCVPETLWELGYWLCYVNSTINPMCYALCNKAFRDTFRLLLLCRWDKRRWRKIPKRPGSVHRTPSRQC
As to the kind of experiment: PDSP radioligand binding, muscarinic receptor M1.
Text: as §1

Another assay addresses MOR (Homo sapiens, UniProt P35372). Description: PDSP radioligand binding, opioid receptor MOR.
Text: as §1

Assay [1] addresses NMDA Receptor (MK-801 binding site). As to the kind of experiment: PDSP radioligand binding, NMDA receptor.
Text: as §1

The target in a further assay is PBR (Homo sapiens, UniProt P30536). As to the kind of experiment: PDSP radioligand binding, peripheral benzodiazepine receptor.
Text: as §1

The mark [2] stands for this setting: Table 2, read-out: NMDA (Ki) (converted).

As a reminder, the Ki is the equilibrium dissociation constant of an inhibitor or competing ligand from its target.

Chain of MOR (P35372 whole entry): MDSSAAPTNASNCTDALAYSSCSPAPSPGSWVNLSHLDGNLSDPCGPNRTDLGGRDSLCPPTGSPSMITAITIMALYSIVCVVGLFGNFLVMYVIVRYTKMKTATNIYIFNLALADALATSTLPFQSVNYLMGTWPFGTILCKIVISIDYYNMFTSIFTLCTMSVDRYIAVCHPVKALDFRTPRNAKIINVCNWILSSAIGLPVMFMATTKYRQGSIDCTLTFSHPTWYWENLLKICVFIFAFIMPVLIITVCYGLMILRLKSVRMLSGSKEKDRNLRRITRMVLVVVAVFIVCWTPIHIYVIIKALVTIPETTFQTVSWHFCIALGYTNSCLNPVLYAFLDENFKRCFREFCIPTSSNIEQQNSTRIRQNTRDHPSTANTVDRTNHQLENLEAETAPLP
Chain of CB2 (P34972 whole entry, species assumed): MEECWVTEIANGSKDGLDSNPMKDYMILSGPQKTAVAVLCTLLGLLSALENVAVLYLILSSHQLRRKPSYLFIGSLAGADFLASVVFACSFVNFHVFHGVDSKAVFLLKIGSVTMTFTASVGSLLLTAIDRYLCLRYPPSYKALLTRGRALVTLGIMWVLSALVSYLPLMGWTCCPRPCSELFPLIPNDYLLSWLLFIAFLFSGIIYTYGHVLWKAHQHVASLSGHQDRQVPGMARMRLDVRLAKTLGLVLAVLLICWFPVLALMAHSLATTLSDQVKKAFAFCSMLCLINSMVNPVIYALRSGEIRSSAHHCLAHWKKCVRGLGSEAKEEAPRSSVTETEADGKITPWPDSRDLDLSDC
Chain of DOR (P41143 whole entry): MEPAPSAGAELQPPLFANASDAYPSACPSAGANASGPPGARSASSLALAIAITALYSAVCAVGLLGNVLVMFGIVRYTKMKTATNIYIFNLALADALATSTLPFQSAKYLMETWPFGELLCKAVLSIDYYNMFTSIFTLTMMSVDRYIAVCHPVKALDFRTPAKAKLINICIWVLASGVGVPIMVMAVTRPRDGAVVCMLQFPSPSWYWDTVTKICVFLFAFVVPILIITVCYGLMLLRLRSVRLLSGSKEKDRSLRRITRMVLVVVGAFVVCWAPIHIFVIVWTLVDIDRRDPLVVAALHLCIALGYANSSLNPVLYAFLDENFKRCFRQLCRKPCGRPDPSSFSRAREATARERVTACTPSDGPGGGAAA
Chain of 5-HT1B (P28222 whole entry, species assumed): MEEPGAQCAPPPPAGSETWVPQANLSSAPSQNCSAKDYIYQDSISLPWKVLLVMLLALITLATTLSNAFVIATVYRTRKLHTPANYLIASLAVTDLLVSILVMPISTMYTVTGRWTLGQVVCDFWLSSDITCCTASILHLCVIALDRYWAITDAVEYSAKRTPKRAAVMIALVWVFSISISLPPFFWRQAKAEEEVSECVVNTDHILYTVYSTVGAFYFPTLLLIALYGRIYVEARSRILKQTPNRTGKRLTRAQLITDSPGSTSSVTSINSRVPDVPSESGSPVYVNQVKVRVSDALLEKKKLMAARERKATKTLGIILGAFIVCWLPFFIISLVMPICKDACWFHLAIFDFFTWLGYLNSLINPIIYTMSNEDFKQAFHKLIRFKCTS
Chain of A4B4 (P09483 31-630): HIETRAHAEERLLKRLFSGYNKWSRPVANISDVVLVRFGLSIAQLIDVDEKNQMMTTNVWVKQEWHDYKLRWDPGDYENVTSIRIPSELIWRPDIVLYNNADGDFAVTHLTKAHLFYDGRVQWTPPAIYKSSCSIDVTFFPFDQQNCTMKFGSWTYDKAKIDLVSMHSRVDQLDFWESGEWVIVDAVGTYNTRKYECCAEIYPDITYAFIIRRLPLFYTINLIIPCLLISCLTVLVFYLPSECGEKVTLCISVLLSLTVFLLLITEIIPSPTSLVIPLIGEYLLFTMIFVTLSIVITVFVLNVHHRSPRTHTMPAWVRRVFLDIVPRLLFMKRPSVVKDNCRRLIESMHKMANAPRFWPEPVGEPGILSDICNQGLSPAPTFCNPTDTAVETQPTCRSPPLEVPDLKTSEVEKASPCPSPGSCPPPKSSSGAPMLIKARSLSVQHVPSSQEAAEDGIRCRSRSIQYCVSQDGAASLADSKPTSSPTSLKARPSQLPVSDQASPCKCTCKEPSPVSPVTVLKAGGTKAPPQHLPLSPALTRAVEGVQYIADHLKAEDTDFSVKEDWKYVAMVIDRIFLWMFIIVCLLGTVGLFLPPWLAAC
Chain of A4B4 (P12392 21-495): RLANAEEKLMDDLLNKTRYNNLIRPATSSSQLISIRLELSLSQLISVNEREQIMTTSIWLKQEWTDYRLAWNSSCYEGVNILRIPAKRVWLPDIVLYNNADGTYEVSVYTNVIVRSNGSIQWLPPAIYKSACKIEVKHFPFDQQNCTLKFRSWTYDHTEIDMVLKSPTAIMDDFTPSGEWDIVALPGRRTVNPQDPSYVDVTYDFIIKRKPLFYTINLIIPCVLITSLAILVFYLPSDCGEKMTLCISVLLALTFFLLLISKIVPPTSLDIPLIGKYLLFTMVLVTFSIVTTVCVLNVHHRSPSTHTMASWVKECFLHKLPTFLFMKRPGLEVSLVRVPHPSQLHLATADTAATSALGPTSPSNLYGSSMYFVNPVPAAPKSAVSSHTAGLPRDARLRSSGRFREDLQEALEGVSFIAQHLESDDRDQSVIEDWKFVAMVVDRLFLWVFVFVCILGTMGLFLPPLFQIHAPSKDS
Chain of A4B2 (P09483 31-630): as the sequence (P09483 31-630) above
Chain of A4B2 (P12390 25-500): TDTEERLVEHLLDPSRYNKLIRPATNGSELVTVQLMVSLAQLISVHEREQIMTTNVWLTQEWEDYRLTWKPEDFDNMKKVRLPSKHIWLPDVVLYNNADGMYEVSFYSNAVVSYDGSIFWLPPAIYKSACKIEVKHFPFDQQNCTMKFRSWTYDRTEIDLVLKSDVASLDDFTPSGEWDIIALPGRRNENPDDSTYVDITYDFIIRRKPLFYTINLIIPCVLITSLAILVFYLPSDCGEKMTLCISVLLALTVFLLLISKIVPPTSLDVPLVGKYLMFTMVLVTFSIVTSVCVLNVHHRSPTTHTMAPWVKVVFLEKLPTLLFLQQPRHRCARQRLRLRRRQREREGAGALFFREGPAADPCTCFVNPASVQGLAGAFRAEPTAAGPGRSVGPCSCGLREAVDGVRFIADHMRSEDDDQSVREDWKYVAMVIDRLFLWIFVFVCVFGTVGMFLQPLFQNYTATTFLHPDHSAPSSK
Chain of PBR (P30536 whole entry, species assumed): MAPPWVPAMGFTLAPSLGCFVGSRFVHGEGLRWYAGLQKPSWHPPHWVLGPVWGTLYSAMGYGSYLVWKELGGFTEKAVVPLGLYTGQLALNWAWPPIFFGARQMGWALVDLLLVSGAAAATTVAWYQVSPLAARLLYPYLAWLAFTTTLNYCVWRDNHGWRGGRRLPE

`CCNC1(c2cccc(OC)c2)CCCCC1=O` (racemic) [Methoxetamine, (RS)-2-(ethylamino)-2-(3-methoxyphenyl)cyclohexanone]: the inhibition constant (Ki) at 5-HT1B, on A4B2, on A4B4, on Alpha1D, at Alpha2A and at CB2 was above 10 µM in each case. For the same compound, the Ki on D4 was above 10 µM; at DOR it was above 10 µM; on GABAA it was above 10 µM; at M1 it was above 10 µM; at MOR it was above 10 µM; in [1] (Figure 3, N = 3 separate determinations, read-out: Ki in NMDA receptor assay), 0.337 µM. Moreover, the Ki in [1] (Table S1, unit inferred, read-out: Ki NMDA) is 0.338 µM; on PBR, above 10 µM.
In the case of `COc1cccc(C2(N3CCCCC3)CCCCC2)c1` [3-MeO-PCP, 1-[1-(3-methoxyphenyl)cyclohexyl]piperidine], the Ki is above 10 µM at 5-HT1B; above 10 µM at A4B2; above 10 µM on A4B4; above 10 µM at Alpha1D; 0.964 µM on Alpha2A; above 10 µM on CB2. Besides, the Ki was above 10 µM at D4; above 10 µM at DOR; above 10 µM at GABAA; above 10 µM at M1; above 10 µM at MOR; 0.02 µM in assay [1] (setting [2]). In addition, the inhibition constant Ki on PBR was above 10 µM. In addition, in assay [1] (Table 2), the “NMDA pKi +/− SD” value came out at 7.69±0.08.
`COc1ccc(C2(N3CCCCC3)CCCCC2)cc1` [4-MeO-PCP, 1-[1-(4-methoxyphenyl)cyclohexyl]piperidine]: the Ki on 5-HT1B, on A4B2, on A4B4, at Alpha1D, at Alpha2A and on CB2 was above 10 µM throughout. The Ki on D4 is above 10 µM; on DOR, above 10 µM; on GABAA it was above 10 µM; on M1 it was above 10 µM; on MOR, above 10 µM; in [1] (setting [2]), 0.404 µM. The compound also registered a Ki at PBR above 10 µM. The “NMDA pKi +/− SD” value in assay [1] (Table 2) was 6.39±0.06.
